Structure (SMILES)	melting point [°C]
Ic1cnn(-c2cccnc2)c1	145 to 146
CC(C)OC(=O)c1cc(-n2c(=O)c(F)c(C(F)(F)F)n(C)c2=O)c(F)cc1Cl	66 to 68
CCOc1ccc2c(ccn2C)c1O	69 to 70
O=C(O)C1CCN(C(=O)c2ccccc2SSc2ccccc2C(=O)N2CCC(C(=O)O)CC2)CC1	> 250
CC(=Cc1ccc(-n2ccnc2)cc1)[N+](=O)[O-]	119 to 120
CC(=O)C=Cc1c(C)c(C)c(C)c2ccoc12	99
Cc1cc(C)nc(Sc2ccnc3cc(Cl)cc(Cl)c23)n1	182 to 183
O=C(CCCN1CCN(c2ccc(F)cc2)CC1)NC1c2ccccc2C=Cc2ccccc21	233 to 235
CCOC(=O)C(C(=O)OCC)N(Cc1ccc(OC)cc1OC)C(=O)CCl	83 to 84
COC(=O)N1c2cc(F)ccc2NC(=O)C1(C)C	166 to 168
CCCOc1ccccc1N1CCN(CCCCn2c(=O)[nH]c(=O)c3ccccc32)CC1	68
Cc1cccc(C(=O)c2ccccc2F)c1N	65.5 to 67.5
COc1cc(COc2nn(Cc3ccccc3)cc2C=O)ccc1OCc1nc(-c2ccccc2)oc1C	151 to 152
COC(=O)NC1(c2ccc(C(C)C)cc2OC)C(=O)c2ccccc2C1=O	153 to 155
O=C(c1ccccc1)c1cc2c(s1)SCCc1cc(=O)n(-c3ccc(Cl)cc3)nc1-2	180 to 182
CC(C)n1nc(-c2nc(-n3cccc3)c(N)nc2-c2ccccc2)ccc1=O	132 to 136
OCc1nn(-c2ccccc2Cl)cc1-c1ccccc1	132
N=C(NCc1ccco1)NN=Cc1c(Cl)cccc1Cl	134 to 136
CCCCCC(C(=O)O)c1ccc(Cl)cc1Cl (stereo unspecified)	65 to 68
CN(C)C(=O)Nc1ccc(Oc2ccc3sncc3c2)cc1	156
CC(=O)Nc1ccc(Sc2c(N)cc(C(=O)O)cc2S(N)(=O)=O)cc1	207
CC(O)C(CCCc1ccccc1)n1cnc(C(N)=O)c1N (stereo unspecified)	132
CC(C)(C)OC(=O)NCCN(O)C(N)=O	144 to 146
C#CCOC(=O)Oc1ccc(C(=O)c2ccc(OC(=O)OCC#C)cc2)cc1	104 to 106
O=C(Nc1ccc2[nH]ccc2c1)C(=O)N1CCC(Cc2ccccc2)CC1	68 to 72
O=C(CCN1CCN(c2cnc3ccccc3c2)CC1)c1csc2ccccc12	112 to 114

Structure (SMILES)	melting point [°C]
c1ccc(NN2CCc3ccccc32)cc1	182 to 183
CC(C)(C)c1ccc(C(=O)C(Cl)(Cl)Cl)cc1	59 to 62
CC(C)C1Cc2ccccc2P1c1ccccc1P1c2ccccc2CC1C(C)C (single isomer, unassigned; (+))	70 to 71
CN(C)C(=O)Cn1nnnc1S	204 to 205
CCn1cc(C(=O)O)c(=O)c2cc(F)c(N3CCOC(CNC=O)C3)c(F)c21 (stereo unspecified)	234 to 236
CCCCCCCCCCCCCCCCSCC(COS(C)(=O)=O)NC(=O)OC (stereo unspecified)	82 to 83
CCOC(=O)/C(=N\OCC(=O)N(CC)CC)c1csc(N)n1	161
CCN1CCN(c2cc3c(cc2F)c(=O)c(C(=O)O)cn3CC)CC1	251 to 253
COCCc1nc2c(N)nc3ccccc3c2n1CCCNC(=O)c1cc2ccccc2cn1	198
CCOC(=O)C=C1CSC2=C1SCC=NC2	86 to 87
COc1ccc(NN=C2C(=O)Nc3ccc(C4=NNC(=O)SC4C)cc32)cc1 (stereo unspecified)	273
Nc1cc(Cl)cc(C(F)(F)F)c1N	53
COc1cc(Nc2c(C#N)cnc3cc(/C=C/C(=O)N4CCN(C)CC4)sc23)c(Cl)cc1Cl	218 to 220
Cc1cc(Cl)ccc1N1CCC(=O)N(C)C1=O	120 to 127
O=C1NCCc2cc(O)ccc21	204 to 206
O=C(N[C@@H](CS)C(=O)O)C(Sc1nc2cc(Cl)ccc2s1)c1ccccc1 (stereo partly specified)	155 to 158
CC(C)c1ccc2c(c1)[C@@H](NC(=O)c1ccc(F)cc1)[C@H](O)C(C)(C)O2 (relative stereo)	235 to 236
Cc1cc(Oc2ccc(N)cc2)c2cc3c(cc2n1)OCO3	251 to 253
CCCCCCOc1cccc(C[C@H](NC(=O)c2coc(NS(C)(=O)=O)n2)[C@H](O)CNCc2cccc(CC)c2)c1	85 to 90
CCCCCCc1nc2cc3c(cc2[nH]1)NC(=O)C3(C)C	233 to 234
CNC(=O)c1ccccc1C(=O)NCSc1ccncc1	118 to 121
O=C(c1ccc2c(c1)OCCO2)c1ccc2nc(Cl)nc(-c3cccc(Cl)c3)c2c1	198
O=C(O)c1nc2cc(Oc3cccc([N+](=O)[O-])c3)c([N+](=O)[O-])cc2[nH]c1=O	198 to 200
CCOc1nn(-c2ccc(C(F)(F)F)cn2)cc1CCCOc1c(CC(=O)O)cccc1OC	122 to 123
CCCOc1ccccc1-c1nc2nc(CC)ncc2c(=O)[nH]1	118 to 119
O=C(O)CC(=O)N(c1ccccc1)c1ccccc1	126 to 127

Structure (SMILES)	melting point [°C]
O=C(NCc1ccccn1)c1cc(C(F)(F)F)cc(C(F)(F)F)c1	123 to 124
CC(=S)Nc1ccc(-c2nc3ccccc3s2)cc1	222 to 223
CC1C(=O)N(CC(N)=O)C(C)(C)N1C(=O)CN (stereo unspecified)	118
O=C(C=P(c1ccccc1)(c1ccccc1)c1ccccc1)COc1ccccc1Cl	107 to 109
CC(C)Cc1nccc2c(CC(=O)O)cccc12	152
COc1ccccc1C=C1NC(=S)NC1=O	234 to 235
CCc1cccc(C)c1C(=O)N[C@@H](Cc1ccc([N+](=O)[O-])cc1)C(=O)OC	119 to 121
O=Cc1cccc(OCc2ccco2)c1	144 to 146
CCOC(=O)c1cn(Cc2ccccc2OC)c2c(F)c(F)c(F)cc2c1=O	203 to 204
O=C(NCc1cccs1)C12CC3CC(CC1C3)C2	143 to 145
CCOC(=O)C(=O)Nc1cccc(NC(=O)C(=O)OCC)c1Cl	162
Cc1cc2c(c(C(=O)c3ccccc3)c1)NCC2	84
COc1ccc(-c2ccccc2)cc1NC(=S)c1ncc[nH]1	223 to 226
CCCN1N=C(c2ccc(OC)c(OC)c2)[C@@H]2CCCC[C@@H]2C1=O (relative stereo)	95 to 96
CCOC(=NC(=O)c1cccc(C)c1)N1Cc2ccccc2-c2ccccc2C1	102 to 105
COc1cc2c(Nc3ccc(Cl)cc3F)ncnc2cc1OCCN(C)C(=O)OC(C)(C)C	194 to 196
O=C(CO)NCCCCCCCCCCNC(=O)CO	120 to 122
CCOC(=O)C(=CNc1ccccc1CO)C(=O)C(C)C	72 to 84
CC(O)=C1C(=O)CC(c2ccccc2Cl)CC1=O (stereo unspecified)	100 to 101
CCOC(=O)C1=C(C)NC(C)=C(C(=O)OCCN2CCN(C(c3ccc(C)cc3)c3ccc(C)cc3)CC2)C1c1ccc(C#N)cc1 (stereo unspecified)	93 to 96
ON=C(Cn1cncn1)c1ccc(Cl)cc1Cl	117
CCOC(=O)[C@H]1C2C1[C@](N[C@H](C)c1ccccc1)(C(=O)OCC)C[C@@H]2O (stereo partly specified)	73 to 74
Nc1ncc2c(n1)CCC(NC(=O)[C@@H]1CCCN1C(=O)[C@@H](Cc1ccccc1)NS(=O)(=O)Cc1ccccc1)C2 (stereo partly specified)	117 to 120
Cn1nnc2cc(C(=O)NC3CCCn4c3nc(-c3ccncc3)cc4=O)ccc21 (racemic)	267 to 269
COc1cccc(C=CCN2CCc3nc(N)sc3CC2)c1	120 to 124
O=C(O)C1CCc2c(oc3ccc(Cl)cc23)C1 (stereo unspecified)	194 to 198

Structure (SMILES)	melting point [°C]
CC(C)OC(=O)c1nc(-c2ccc(=O)[nH]c2)c(-c2ccccc2)nc1N	250 to 256
Cc1cc(NCc2ccc3c(c2)OCO3)nc(SCC#N)n1	115 to 118
CCOc1nc(C(F)(F)F)cc(=O)n1-c1cc(OC)c(Br)cc1F	126 to 128
COC(=O)C1(n2c(=O)[nH]c3ccccc3c2=O)CCCC1	164 to 165
CCCCCCCCCCCCCCCCCCCCC(NC(C)=O)(C(=O)OCC)C(=O)OCC	76.5 to 77.5
COc1ccccc1-c1nc2cc(NC(=O)c3c(C(=O)N4CCC4)cnn3C)ccn2n1	258
CNC(=S)N(C)Cc1ccc(Br)nc1	107 to 108
O=c1cc(C(F)(F)F)cnn1-c1cc(Oc2ncccn2)c(Cl)cc1F	156 to 160
Cc1cc(Nc2ncnc3ccn(CCNC(=O)CS(C)(=O)=O)c23)ccc1Oc1cccc(OC(F)(F)F)c1	106 to 108
CCCn1c(=O)n2c(-c3ccccc3)nnc2c2[nH]cnc21	273 to 280
CC(C)(CF)C(=O)C(Oc1cccc(F)n1)n1cncn1 (stereo unspecified)	116
Cc1cn(C2CC(O[Si](C)(C)C(C)(C)C)C(CO)O2)c(=O)[nH]c1=O (stereo unspecified)	93 to 95
COC(=O)Cc1coc2c(O)cccc12	58 to 59
CC(C)(C)C(=O)Oc1cc([N+](=O)[O-])cc([N+](=O)[O-])c1O	132 to 135
CSC1=Nc2ccccc2N2CCN(c3ccccc3)CCN12	125 to 127
O=C(NCCc1c[nH]c2ccccc12)C1CCCCC1	98 to 99
COc1cc(/C=C/c2nc3ccccc3c(=O)o2)ccc1OC(C)=O	185 to 186
CCOC(=O)c1cn(C(C)(C)CO[Si](C)(C)C(C)(C)C)c2cc(Br)ccc2c1=O	133
CN(C)c1cc2c(cc1-c1ccc3cc(C=C4SC(=S)N(CC(=O)O)C4=O)ccc3c1)C(C)(C)CCC2(C)C	194 to 196
CN(CCOc1ccc(CC(Sc2ccccc2)C(=O)O)cc1)c1nc2ccccc2o1 (stereo unspecified)	144 to 147
CCOC(=O)C1CC(=O)NN1c1ncc(Cl)cc1Cl (stereo unspecified)	105 to 108
CCOc1ccc(C2=NN(CC3CC3)C(=O)[C@H]3CC=CC[C@@H]23)cc1OCC (relative stereo)	142 to 145
CC1=C(c2ccc(Cl)cc2)n2ncc(C#N)c2N(C(=O)CCl)C1	138 to 140
